The values that follow come from patent US20080004266A1, “Method for treating proliferative disorders associated with protooncogene products” (priority 2006, published 2008).

Series [1] relates to c-kit. The series is described as follows: FACS-based c-kit degradation assay in Kasumi-1 cells. The class given is cell-based, human. Conditions: about 18 h, compounds at 0.5 and 0.05 μM, 17-AAG at 0.5 μM. The procedure:
(§1) Two leukemia cell lines, HEL92.1.7 and Kasumi-1, were used for testing c-kit degradation induced by Hsp90 inhibitors of the invention. […] The cells were collected and centrifuged (SORVALL RT 6000D) at 1200 rpm for 5 min. The supernatants were discarded, and the cells were washed one time with 1×PBS. After centrifugation the cells were stained with FITC conjugated c-kit antibody (MBL International, Cat# K0105-4) in […] 1×PBS at 4° C. for 1 h. The samples were read and analysized with FACSCalibur flow cytometer (Becton Dicknson).

In another series the test system is MV 4-11 cells (FLT3-ITD). In words: Cell survival in MV-4-11 cells (Cell Counting Kit-8). As to conditions: Homo sapiens, MV4-11, 72 hours. The series is classed as cell-based, human. The procedure:
Human acute myelogenous leukemia (AML) cell line, MV 4-11 (ATCC #CRL-9591), was obtained from the American Type Culture Collection (ATCC; Manassas, Va., USA). Growth of this tumor cell line is dependent upon the expression of an activated form of the FLT3 tyrosine kinase receptor carrying an internal tandem duplication (ITD) mutation, which is the most common molecular defect associated with AML (K. W. Yee et al., Blood 100:2941-2949, 2002). MV 4-11 cells (20,000 cells/well) were cultured in 96-well plates and maintained at 37° C. for several hours. The cells were incubated at 37° C. for 72 hours with various concentrations of compounds of the invention, 17AAG, or DMAG. 17AAG and DMAG are Hsp90 inhibitors that are currently in clinical trials and are used here as positive controls for Hsp90 inhibition. Cell survival was measured with Cell Counting Kit-8 (Dojindo Laboratories, Cat # CK04).
On the technique in general: Formazan colour is commonly taken as a measure of viable cells.

Series [2] relates to c-kit. The series is described as follows: FACS-based c-kit degradation assay in HEL92.1.7 cells. The series is classed as cell-based. As to conditions: about 18 h, compounds at 0.5 and 0.05 μM, 17-AAG at 0.5 μM. The method, then:
as §1

Series [3] relates to Kasumi-1 cells (c-Kit N822K). In words: Cell survival in Kasumi-1 cells (Cell Counting Kit-8). The series is classed as cell-based, human. As to conditions: Homo sapiens, 72 hours. The method, then: Kasumi-1 cells (20,000 cells/well) were cultured in 96-well plates and maintained at 37° C. for several hours. […] 17AAG and DMAG are Hsp90 inhibitors that are currently in clinical trials and are used here as positive controls for Hsp90 inhibition. […] Cell survival was measured with Cell Counting Kit-8 (Dojindo Laboratories, Cat # CK04).

The next series concerns K562 cells (Bcr-Abl). The series is described as follows: Cell survival in K562 cells (Cell Counting Kit-8). The class given is cell-based, human. As to conditions: Homo sapiens, 72 hours. The procedure:
Growth of this tumor cell line is dependent upon the expression of the Bcr-Abl fusion protein (C. Gambacarti-Passerini et al., Blood Cells Mol. Dis. 23:380-394, 1997). K562 cells (20,000 cells/well) were cultured in 96-well plates and maintained at 37° C. for several hours. […] 17AAG, DMAG, and Radicical are Hsp90 inhibitors that are currently in clinical trials and are used here as positive controls for Hsp90 inhibition. […] Cell survival was measured with Cell Counting Kit-8 (Dojindo Laboratories, Cat # CK04).

The next series relates to A375 cells (B-raf V600E). The series is described as follows: Cell survival in A375 melanoma cells (Cell Counting Kit-8). As to conditions: 72 hours. The class given is cell-based, human. The procedure: Human melanoma cell line, A375 (2×10^6 cells), which contains the V600E mutation in the B-raf protein that confers constitutive […] kinase activity, was obtained from American Type Culture Collection. A375 cells (20,000 cells/well) were cultured in 96-well plates and maintained at 37° C. for several hours. The cells were incubated at 37° C. for 72 hours with various concentrations of compound 226, 17AAG or 17DMAG. 17AAG and 17DMAG are Hsp90 inhibitors that are currently in clinical trials and are used here as positive controls for Hsp90 inhibition. Cell survival was measured with Cell Counting Kit-8 (Dojindo Laboratories, Cat # CK04).

The subject of series [4] is Karpas-299 cells (NPM-ALK). The series is described as follows: Cell survival in Karpas-299 cells (Cell Counting Kit-8). The class given is cell-based, human. As to conditions: 72 hours. The method, then: Growth of this tumor cell line is dependent upon the expression of the NPM-ALK fusion protein. Karpas-299 cells (20,000 cells/well) were cultured in 96-well plates and maintained at 37° C. for several hours. The cells were incubated at 37° C. for 72 hours with various concentrations of compound 226 of the invention, 17AAG, and 17DMAG. 17AAG and 17DMAG are Hsp90 inhibitors that are currently in clinical trials and are used here as positive controls for Hsp90 inhibition. Cell survival was measured with Cell Counting Kit-8 (Dojindo Laboratories, Cat # CK04).

Series [5] has as its system c-Kit tyrosine kinase receptor (N822K mutation). In words: Western blot analysis of c-Kit in Kasumi-1 cells. The class given is cell-based, human. Conditions: 100 nM and 400 nM. From the text: The results of the FACS analysis were confirmed with Western blot analysis (see FIG. 5). […] In contrast, 17-AAG had no effect of c-Kit protein levels.
The subject of series [6] is human tumor cell line MDA-MB-435S. In words: MDA-MB-435S nude mouse xenograft model. Conditions: nude mice, 300 mg/kg body weight IP, 5 times per week for 3 weeks, versus vehicle. The series is classed as in vivo. The procedure:
FBS was obtained from Sigma-Aldrich Corp. (St. Louis, Mo., USA), and all other reagents were obtained from Invitrogen Corp. (Carlsbad, Calif., USA). Approximately 4−5×10 (6) cells that had been cryopreserved in liquid nitrogen were rapidly thawed at 37° C. and transferred to a 175 cm^2 tissue culture flask containing 50 ml of growth media and then incubated at 37° C. in a 5% CO2 incubator. The growth media was replaced every 2-3 days until the flask became 90% confluent, typically in 5-7 days. To passage and expand the cell line, a 90% confluent flask was washed with 10 ml of room temperature phosphate buffered saline (PBS) and the cells were disassociated by adding 5 ml 1× Trypsin-EDTA (Invitrogen) and incubating at 37° C. until the cells detached from the surface of the flask. To inactivate the trypsin, 5 ml of growth media was added and then the contents of the flask were centrifuged to pellet the cells. The supernatant was aspirated and the cell pellet was resuspended in 10 ml of growth media and the cell number determined using a hemocytometer. […]
Six to eight week old, female Crl:CD-1-nuBR (nude) mice were obtained from Charles River Laboratories (Wilmington, Mass., USA). […] Tumor volumes (V) were calculated by caliper measurement of the width (W), length (L) and thickness (T) of tumors using the following formula: V=[…]×(L×W×T). […]

Another series has as its system phosphorylated Bcr-Abl. The series is described as follows: Degradation of Bcr-Abl in KU812 cells (Western blot). The series is classed as cell-based. As to conditions: 18 hours. The procedure:
KU812 chronic myeloid leukemia cells (ATCC) (2×10^6 cells), which harbor the Philadelphia chromosome that produces Bcr-Abl tyrosine kinase, were treated (0.1 μM and 1.0 μM) with either Compound 226, 17-AAG or 17-DMAG. After 18 hours, the cells were lysed with 1× lysis buffer, and a western blot was perform using anti-BCR-ABL antibody to detect phosphorylated Bcr-Abl.
(A western blot detects proteins with antibodies after separation by electrophoresis.)

Each structure is given as a SMILES string. pIC50: −log10 of the molar value. “Also recorded” adds a separate entry of the source.

What is called pIC50 is the IC50 on a negative log10 scale, so that one unit is a factor of ten.

As for `CCc1cc(-c2nnc(S)n2-c2ccc(OC)c3c2ccn3C(C)C)c(O)cc1O` [Compound 188, 3-(2,4-Dihydroxy-5-ethyl-phenyl)-4-(1-isopropyl-7-methoxy-indol-4-yl)-5-mercapto-[1,2,4]triazole], the “c-kit degradation (c-kit positive population, FACS)” value (“c-kit degradation” below) in the series with c-kit [1] and with c-kit [2] was “induced c-kit degradation” in each case. Moreover, the pIC50 was 7.60 in the series with MV 4-11 cells (FLT3-ITD) and 7.14 in [3].

Regarding `C[C@@H]1C[C@H]2O[C@@H]2/C=C\C=C\C(=O)Cc2c(Cl)c(O)cc(O)c2C(=O)O1` [Radicical, Radicicol], the pIC50 with K562 cells (Bcr-Abl) was 6.48.

Consider `CO[C@H]1/C=C\C=C(/C)C(=O)NC2=CC(=O)C(NCCN(C)C)=C(C[C@@H](C)C[C@H](OC)[C@H](O)[C@@H](C)/C=C(\C)[C@@H]1OC(N)=O)C2=O` [Compound 17DMAG, 17-(2-dimethylaminoethyl-1)amino-17-desmethoxygeldanamycin], for which the pIC50 is 8.40 in the series on A375 cells (B-raf V600E) and 7.21 in [4].

As to `C=CCNC1=C2C[C@@H](C)C[C@H](OC)[C@H](O)[C@@H](C)/C=C(\C)[C@H](OC(N)=O)[C@@H](OC)/C=C\C=C(/C)C(=O)NC(=CC1=O)C2=O` [Compound 17-AAG, 17-allylamino-17-demethoxygeldanamycin, reference compound], the “c-kit degradation” value in the series with c-kit [1] and with c-kit [2] was “could not induce c-kit degradation” each time. Besides, the “c-Kit protein levels (Western blot)” value in series [5] is given as “no effect”.

In turn, `CCCn1ccc2c(-n3c(S)nnc3-c3cc(C4CC4)c(O)cc3O)ccc(OC)c21` [Compound 205, 3-(2,4-di-hydroxy-5-cyclopropyl-phenyl)-4-(1-propyl-7-methoxy-indol-4-yl)-5-mercapto-[1,2,4] triazole] showed a pIC50 with MV 4-11 cells (FLT3-ITD) of 7.31.

Take `COc1ccc(-n2c(S)nnc2-c2cc(C(C)C)c(O)cc2O)c2ccn(C(C)C)c12` [Compound 208, 3-(2,4-di-hydroxy-5-isopropyl-phenyl)-4-(1-isopropyl-7-methoxy-indol-4-yl)-5-mercapto-[1,2,4] triazole]: the negative logarithm of the IC50 (pIC50) in the series with MV 4-11 cells (FLT3-ITD) was 7.70; in series [3], 7.31.

With `CCc1cc(-c2nnc(S)n2-c2cccc3ccccc23)c(O)cc1O` [Compound 49, 3-(2,4-Di-hydroxy-5-ethyl-phenyl)-4-(naphthalen-1-yl)-5-mercapto-triazole], the “toxicity (effect on body weights)” value in series [6] is reported as “not toxic; also recorded: not associated with significant toxicity”.

As to `CC(C)c1cc(-c2nnc(S)n2-c2ccc3c(ccn3C)c2)c(O)cc1O` [Compound 221, 3-(2,4-di-hydroxy-5-isopropyl-phenyl)-4-(N-methyl-indol-5-yl)-5-mercapto-[1,2,4] triazole], the “c-kit degradation” value in the series on c-kit [1] and with c-kit [2] was “induced c-kit degradation” throughout. Besides, in [5], the “c-Kit protein levels (Western blot)” value is “induced the degradation of c-Kit”.

As for `CO[C@H]1/C=C\C=C(/C)C(=O)NC2=CC(=O)C(NCCN(C)C)=C(C[C@@H](C)C[C@H](OC)[C@H](O)[C@@H](C)/C=C(\C)[C@@H]1OC(N)=O)C2=O` [Compound 17-DMAG], the “degradation of phosphorylated Bcr-Abl” value in the series with phosphorylated Bcr-Abl (0.1 μM) was “partial degradation”; in the series with phosphorylated Bcr-Abl (1.0 μM) it was “complete degradation”.
